How the values were obtained:
SW480 cells [1] = test: Propidium iodide Sub-G1 apoptosis analysis; type: cell-based, human; details: compared to vehicle control, forty-eight hours
Protocol: (§1) Apoptosis assay. Apoptotic cells were quantified by sub-G1 analysis. Cells were seeded at a density of 2.5×10^5to 5×10^5in a 6-well plate and treated forty-eight to seventy-two hours. After treatment, adherent cells were trypsinized and collected along with floating cells, washed with phosphate-buffered saline, and fixed in 70% ethanol. Cells were then incubated in a phosphate-citric acid buffer (0.2M Na2HPO4+0.1M citric acid, pH 7.8) at room temperature for five minutes, spun down, and resuspended for staining with 50 μg/mL propidium iodide (PI) in the presence of 250 μg/mL pancreatic ribonuclease (RNase A). Sub-G1 analyses were performed using an Epics Elite Epics flow cytometer (Coulter-Beckman).
Propidium iodide and BrdU flow cytometry assay. Cells were seeded at a density of 5×10^5 in a 6-well plate and treated for forty-eight to seventy-two hours. After treatment, floating cells were collected, and adherent cells were trypsinized, pelleted, washed with phosphate-buffered saline, and fixed in 70% ethanol overnight. For propidium iodide (PI) based Sub-G1 apoptosis analysis, cells were spun down after fixation and resuspended in phosphate-citric acid buffer (0.2M Na2HPO4+0.1M Citric Acid, pH 7.8) at room temperature for five minutes. […] Samples were analyzed on an Epics Elite Epics flow cytometer (Coulter-Beckman).

[2] = system: normal human WI38 lung fibroblast cells; test: Propidium iodide Sub-G1 analysis in normal cells; type: cell-based; details: forty-eight hours
Protocol: as §1, with “(Coulter-Beckman). Propidium iodide and BrdU flow cytometry assay. Cells were seeded at a density of 5×10^5 in a 6-well plate and treated for forty-eight to seventy-two hours. After treatment, floating cells were collected, and adherent cells were trypsinized, pelleted, washed with phosphate-buffered saline, and fixed in 70% ethanol overnight. For propidium iodide (PI) based Sub-G1 apoptosis analysis, cells were spun down after fixation and resuspended in phosphate-citric acid buffer (0.2M Na2HPO4+0.1M Citric Acid, pH 7.8) at room temperature for five minutes. […] Samples were analyzed on an Epics Elite Epics flow cytometer (Coulter-Beckman).” for “(Coulter-Beckman).”

SW480 cells [3] = test: Clonogenic (colony formation) assay; type: cell-based, human; details: SW480, versus CB002
Protocol: Colony formation assay. Cells were seeded in 6-well plates at a density of 500 cells per well. Cells were treated with CB002 small molecules for twenty-four hours. Then, cells were cultured in complete drug-free media for fifteen days. During the fifteen days, the media was changed every two-three days. At the end of the two weeks, the media was removed. Wells were washed twice with Dulbecco's phosphate-buffered saline (PBS). The colonies were fixed and stained with 10% methanol and 0.25% crystal violet (Sigma-Aldrich, St. Louis, Mo., USA) for thirty minutes. Wells were then carefully washed with distilled, deionized water and allowed to dry.

[4] = parameters: species or system mice; details: in vivo, po, 50 mg/kg
Protocol: Drug efficacy using in vivo tumor xenografts. In vivo drug efficacy studies were performed on ten NSG female randomized mice per cohort. The mice had tested negative for any pathogen. Tumor inoculation was induced by subcutaneous injection in the left and right dorsal flank, each with a 150 μL suspension of 1-5×10^6 human colon cancer cells in phosphate-buffered saline with Matrigel (1:1). After tumor size reached 100 mm^3, mice were treated 3×/week with dimethyl sulfoxide vehicle or CB002-analog #4 via oral gavage (22-gauge needle) in a solution of 10% dimethyl sulfoxide, 20% Kolliphor® EL (Sigma cat. no. C5135), and 70% phosphate-buffered saline. Mouse weight and tumor measurements were recorded one-two times per week. Tumor volume was calculated as V=0.5*L*W^2, where L is length and W is the width of the tumor. At the end of the assay, mice were euthanized by CO2. All in vivo procedures were performed according to an approved Institutional Animal Care and Use Committee (IACUC) protocol.

Structure (SMILES): Cn1c(=O)c2[nH]c(Nc3cccc(C(F)(F)F)c3)nc2n(C)c1=O [CB002-analog #4]
- Sub-G1 content (SW480 cells [1]): significant increase of Sub-G1 content
- sub-G1 in normal cells [2]: does not increase sub-G1
- cytotoxicity by clonogenic assay (SW480 cells [3]): more cytotoxic in vitro than CB002
- tolerability by mouse body weights [4]: well-tolerated
